≈ marks a conversion by molar mass, not a printed value. Like-named read-outs stand apart in the source and are kept apart here.
Test system: C. difficile
Assay: MIC by broth microdilution against C. difficile strains
Type: cell-based, Clostridioides difficile

CCc1c(Cl)c(O)c(Cl)c(O)c1C(=O)O[C@H]1[C@H](O)[C@H](OC)[C@H](OC/C2=C\C=C\C[C@H](O)/C(C)=C/[C@H](CC)[C@@H](O[C@@H]3OC(C)(C)[C@@H](OC(=O)C(C)C)[C@H](O)[C@@H]3O)/C(C)=C/C(C)=C/C[C@@H]([C@@H](C)O)OC2=O)O[C@@H]1C [FDX, fidaxomicin, reference compound]
selectivity toward C. difficile relative to MRSA (C. difficile ATCC43255 relative to MRSA NRS70): 128 fold
MIC (C. difficile BAA-1801, Table 9): 0.125 µg/mL (≈ 0.118 µM)
MIC (C. difficile HM-745, Table 9): 0.125 µg/mL (≈ 0.118 µM)
MIC (C. difficile NR49318, Table 9): 0.125 µg/mL (≈ 0.118 µM)
MIC (C. difficile NR-13431, Table 9): 0.125 µg/mL (≈ 0.118 µM)
MIC (C. difficile NR-13433, Table 9): 0.125 µg/mL (≈ 0.118 µM)
MIC (C. difficile NR-13436, Table 9): 0.125 µg/mL (≈ 0.118 µM)
MIC (C. difficile NR-32883, Table 9): 0.125 µg/mL (≈ 0.118 µM)
MIC (C. difficile NR-32887, Table 9): 0.125 µg/mL (≈ 0.118 µM)
MIC (C. difficile NR-49280, Table 9): 0.125 µg/mL (≈ 0.118 µM)
MIC (C. difficile NR-49298, Table 9): 0.125 µg/mL (≈ 0.118 µM)
MIC (C. difficile NR-49299, Table 9): 0.125 µg/mL (≈ 0.118 µM)
MIC (C. difficile NR-49308, Table 9): 0.125 µg/mL (≈ 0.118 µM)
MIC (C. difficile NR-49312, Table 9): 0.125 µg/mL (≈ 0.118 µM)
MIC (C. difficile NR-49316, Table 9): 0.125 µg/mL (≈ 0.118 µM)
MIC (C. difficile NR-49319, Table 9): 0.125 µg/mL (≈ 0.118 µM)
MIC (C. difficile NR-49320, Table 9): 0.125 µg/mL (≈ 0.118 µM)
MIC (C. difficile NR-49321, Table 9): 0.125 µg/mL (≈ 0.118 µM)
MIC (Clostridioides difficile): 0.125 µg/mL (≈ 0.118 µM)
MIC (Clostridioides difficile, ATCC43255, C. difficile ATCC43255 (TcdA+, TcdB+), Table 1, read-out: MIC): 0.06 µg/mL (≈ 0.0567 µM)
MIC (Clostridioides difficile, ATCC43255, C. difficile ATCC43255, Table 7, read-out: MIC): 0.0625 µg/mL (≈ 0.0591 µM)
MIC (Clostridioides difficile, ATCC43255, C. difficile ATCC43255, Table 9, read-out: MIC): 0.06 µg/mL (≈ 0.0567 µM)
MIC (Clostridioides difficile, ATCC43598, C. difficile ATCC43598, Table 7, read-out: MIC): 0.01 µg/mL (≈ 0.00945 µM)
MIC (Clostridioides difficile, ATCC43598, C. difficile ATCC43598, Table 9, read-out: MIC): 0.01 µg/mL (≈ 0.00945 µM)
MIC (Clostridioides difficile, BAA1801): 0.125 µg/mL (≈ 0.118 µM)
MIC (Clostridioides difficile, BAA1803, C. difficile BAA-1803, Table 7, read-out: MIC): 1 µg/mL (≈ 0.945 µM)
MIC (Clostridioides difficile, BAA1803, C. difficile BAA-1803, Table 9, read-out: MIC): 1 µg/mL (≈ 0.945 µM)
MIC (Clostridioides difficile, BAA1804): 0.125 µg/mL (≈ 0.118 µM)
MIC (Clostridioides difficile, BAA1804, C. difficile BAA-1804, Table 7, read-out: MIC): < 0.25 µg/mL
MIC (Clostridioides difficile, BAA1812, C. difficile BAA-1812, Table 7, read-out: MIC): 0.015 µg/mL (≈ 0.0142 µM)
MIC (Clostridioides difficile, BAA1812, C. difficile BAA-1812, Table 9, read-out: MIC): 0.015 µg/mL (≈ 0.0142 µM)
MIC (Clostridioides difficile, BAA1814, C. difficile BAA-1814, Table 7, read-out: MIC): 0.03 µg/mL (≈ 0.0284 µM)
MIC (Clostridioides difficile, BAA1814, C. difficile BAA-1814, Table 9, read-out: MIC): 0.03 µg/mL (≈ 0.0284 µM)
MIC (Clostridioides difficile, BAA1870, C. difficile BAA-1870 (NAP1, ribotype 27), Table 1, read-out: MIC): 0.25 µg/mL (≈ 0.236 µM)
MIC (Clostridioides difficile, BAA1870, C. difficile BAA-1870, Table 7, read-out: MIC): 0.25 µg/mL (≈ 0.236 µM)
MIC (Clostridioides difficile, BAA1870, C. difficile BAA-1870, Table 9, read-out: MIC): 0.25 µg/mL (≈ 0.236 µM)
MIC (Clostridioides difficile, C. difficile 23691 (VR, vancomycin-resistant), Table 7, read-out: MIC): 4 µg/mL (≈ 3.78 µM)
MIC (Clostridioides difficile, C. difficile 23691, clinical isolate resistant to VAN, Table 1, read-out: MIC): 4 µg/mL (≈ 3.78 µM)
MIC (Clostridioides difficile, C. difficile 23691, Table 9, read-out: MIC): 4 µg/mL (≈ 3.78 µM)
MIC (Clostridioides difficile, C. difficile 23828 (FR, fidaxomicin-resistant), Table 7, read-out: MIC): > 8 µg/mL
MIC (Clostridioides difficile, C. difficile 23828, clinical isolate resistant to FDX, Table 1, read-out: MIC): > 8 µg/mL
MIC (Clostridioides difficile, C. difficile 23828, Table 9, read-out: MIC): > 8 µg/mL
MIC (Clostridioides difficile, C. difficile 24531 (VR, vancomycin-resistant), Table 7, read-out: MIC): 0.01 µg/mL (≈ 0.00945 µM)
MIC (Clostridioides difficile, C. difficile 24531, Table 9, read-out: MIC): 0.01 µg/mL (≈ 0.00945 µM)
MIC (Clostridioides difficile, C. difficile 24923 (VR, vancomycin-resistant), Table 7, read-out: MIC): 0.0625 µg/mL (≈ 0.0591 µM)
MIC (Clostridioides difficile, C. difficile 24923, Table 9, read-out: MIC): 0.06 µg/mL (≈ 0.0567 µM)
MIC (Clostridioides difficile, C. difficile 26675 (MR, metronidazole-resistant), Table 7, read-out: MIC): 4 µg/mL (≈ 3.78 µM)
MIC (Clostridioides difficile, C. difficile 26675, clinical isolate resistant to MTZ, Table 1, read-out: MIC): 4 µg/mL (≈ 3.78 µM)
MIC (Clostridioides difficile, C. difficile 26675, Table 9, read-out: MIC): 4 µg/mL (≈ 3.78 µM)
MIC (Clostridioides difficile, C. difficile 27081 (FR, fidaxomicin-resistant), Table 7, read-out: MIC): > 8 µg/mL
MIC (Clostridioides difficile, C. difficile 27081, Table 9, read-out: MIC): > 8 µg/mL
MIC (Clostridioides difficile, C. difficile 27173 (MR, metronidazole-resistant), Table 7, read-out: MIC): 0.01 µg/mL (≈ 0.00945 µM)
MIC (Clostridioides difficile, C. difficile 27173, Table 9, read-out: MIC): 0.01 µg/mL (≈ 0.00945 µM)
MIC (Clostridioides difficile, C. difficile HM-88, Table 9, read-out: MIC): 0.03 µg/mL (≈ 0.0284 µM)
MIC (Clostridioides difficile, C. difficile HM-89, Table 9, read-out: MIC): 0.03 µg/mL (≈ 0.0284 µM)
MIC (Clostridioides difficile, C. difficile HM-746, Table 9, read-out: MIC): ≤ 0.03 µg/mL
MIC (Clostridioides difficile, C. difficile HM-747, Table 9, read-out: MIC): 0.06 µg/mL (≈ 0.0567 µM)
MIC (Clostridioides difficile, C. difficile NR49292, Table 7, read-out: MIC): 0.5 µg/mL (≈ 0.473 µM)
MIC (Clostridioides difficile, C. difficile NR49292, Table 9, read-out: MIC): 0.5 µg/mL (≈ 0.473 µM)
MIC (Clostridioides difficile, C. difficile NR49294, Table 7, read-out: MIC): 0.01 µg/mL (≈ 0.00945 µM)
MIC (Clostridioides difficile, C. difficile NR49294, Table 9, read-out: MIC): 0.01 µg/mL (≈ 0.00945 µM)
MIC (Clostridioides difficile, C. difficile NR49302, Table 7, read-out: MIC): 0.03 µg/mL (≈ 0.0284 µM)
MIC (Clostridioides difficile, C. difficile NR49302, Table 9, read-out: MIC): 0.03 µg/mL (≈ 0.0284 µM)
MIC (Clostridioides difficile, C. difficile NR49305, Table 7, read-out: MIC): 0.01 µg/mL (≈ 0.00945 µM)
MIC (Clostridioides difficile, C. difficile NR49305, Table 9, read-out: MIC): 0.01 µg/mL (≈ 0.00945 µM)
MIC (Clostridioides difficile, C. difficile NR49310, Table 7, read-out: MIC): ≤ 0.01 µg/mL
MIC (Clostridioides difficile, C. difficile NR49310, Table 9, read-out: MIC): ≤ 0.01 µg/mL
MIC (Clostridioides difficile, C. difficile NR-13427, Table 9, read-out: MIC): 0.03 µg/mL (≈ 0.0284 µM)
MIC (Clostridioides difficile, C. difficile NR-13428, Table 9, read-out: MIC): ≤ 0.03 µg/mL
MIC (Clostridioides difficile, C. difficile NR-13429, Table 9, read-out: MIC): 0.25 µg/mL (≈ 0.236 µM)
MIC (Clostridioides difficile, C. difficile NR-13430, Table 9, read-out: MIC): ≤ 0.03 µg/mL
MIC (Clostridioides difficile, C. difficile NR-13434, Table 9, read-out: MIC): 0.06 µg/mL (≈ 0.0567 µM)
MIC (Clostridioides difficile, C. difficile NR-13435, Table 9, read-out: MIC): ≤ 0.03 µg/mL
MIC (Clostridioides difficile, C. difficile NR-13437, Table 9, read-out: MIC): 0.25 µg/mL (≈ 0.236 µM)
MIC (Clostridioides difficile, C. difficile NR-13438, Table 9, read-out: MIC): 0.06 µg/mL (≈ 0.0567 µM)
MIC (Clostridioides difficile, C. difficile NR-13553, Table 9, read-out: MIC): ≤ 0.03 µg/mL

— patent US20230271950A1, “ANTIBACTERIAL PICOLINAMIDE COMPOUNDS” (University of Notre Dame Du Lac, priority 2020, published 2023)
